Assay results as given in US20120309734A1, “COMBRETASTATIN DERIVATIVES AND USES THEREFOR” (priority 2009, published 2012).
Read-outs that look alike come from different tables or passages of the source.

Tests used:
A2780-ADR (PGP) = assay: Alamar Blue cell viability assay; settings: for IC50: A2780 ADR, 72 h; for RF: IC50 A2780-ADR (PGP) / IC50 A2780-parental
Method: (§1) Three drug resistant cell lines and respective parental cell lines were assessed. […] Western blot analysis confirmed the overexpression of p-glycoprotein and BCRP in respective cell lines.
(§2) Cells were exposed to multiple concentrations of the indicated compound for 72 h. Cell viability was assessed using the Alamar blue assay and respective IC50 values were calculated. The resistance factor (RF) was calculated by dividing the IC50 of the resistant cell line/IC50 of the parental cell line.
(§3) All cells were cultured in RPMI-1640 Glutamax medium supplemented with 10% FCS media, 100 units/ml penicillin and 100 μg/mIstreptomycin. Cells were maintained at 37° C. in 5% CO2 in a humidified incubator.
(§4) The reduction of Alamar Blue is proportional to the number of viable cells. Cells (200 μl) were plated in triplicate in a 96-well plates (K562, 100,000/ml; HL-60, 300,000/ml; A-2780 50,000/ml). A-2780 cells were plated 24 h prior to treatment. Suspension cells were plated in the log phase of growth and treated immediately. The cells were then treated with either medium alone, vehicle (1% ethanol v/v or 0.1% DMSO v/v) or with a range of concentrations of drug [0.001-10 μM]. After 72 h, Alamar Blue was added to each well (10% of final volume) and fluorescence was read using a 96-well fluorometer with excitation at 530 nm and emission of 590 nm. The blank solution consisted of medium and Alamar Blue and the blank solution was used to calibrate the spectrophotometer to zero absorbance. The relative cell viability (%) related to control wells and was calculated by [A]test/[A]control×100 where [A]test is the absorbance of the drug treated cells and [A]control the absorbance of the vehicle control treated cells. Dose response curves were plotted and IC50 values (concentration of drug resulting in 50% reduction in cell survival) were obtained using the commercial software package Prism (GraphPad Software, Inc., La Jolla, USA). Experiments were performed in triplicate on at least three separate occasions.

A2780-parental = assay: Alamar Blue cell viability assay; assay type: cell-based; settings: 72 h
Method: as §2
(§5) A2780-parental and A2780-ADR resistant cells were provided by the Beatson Institute of Cancer Research, Glasgow. […] All cells were cultured in RPMI-1640 Glutamax medium supplemented with 10% FCS media, 100 units/ml penicillin and 100 μg/mIstreptomycin. Cells were maintained at 37° C. in 5% CO2 in a humidified incubator.
as §4

p-glycoprotein = molecular target: T1, p-glycoprotein (Homo sapiens, UniProt P08183); assay: Anti-proliferative effects in multi-drug resistant cells, conclusion on efflux; assay type: cell-based; settings: concluded from resistance factors
T1 construct: HL-60-MDR (overexpress p-glycoprotein); endogenous in cells; host or cells: HL-60-MDR, A2780-ADR
T1 sequence (P08183 whole entry): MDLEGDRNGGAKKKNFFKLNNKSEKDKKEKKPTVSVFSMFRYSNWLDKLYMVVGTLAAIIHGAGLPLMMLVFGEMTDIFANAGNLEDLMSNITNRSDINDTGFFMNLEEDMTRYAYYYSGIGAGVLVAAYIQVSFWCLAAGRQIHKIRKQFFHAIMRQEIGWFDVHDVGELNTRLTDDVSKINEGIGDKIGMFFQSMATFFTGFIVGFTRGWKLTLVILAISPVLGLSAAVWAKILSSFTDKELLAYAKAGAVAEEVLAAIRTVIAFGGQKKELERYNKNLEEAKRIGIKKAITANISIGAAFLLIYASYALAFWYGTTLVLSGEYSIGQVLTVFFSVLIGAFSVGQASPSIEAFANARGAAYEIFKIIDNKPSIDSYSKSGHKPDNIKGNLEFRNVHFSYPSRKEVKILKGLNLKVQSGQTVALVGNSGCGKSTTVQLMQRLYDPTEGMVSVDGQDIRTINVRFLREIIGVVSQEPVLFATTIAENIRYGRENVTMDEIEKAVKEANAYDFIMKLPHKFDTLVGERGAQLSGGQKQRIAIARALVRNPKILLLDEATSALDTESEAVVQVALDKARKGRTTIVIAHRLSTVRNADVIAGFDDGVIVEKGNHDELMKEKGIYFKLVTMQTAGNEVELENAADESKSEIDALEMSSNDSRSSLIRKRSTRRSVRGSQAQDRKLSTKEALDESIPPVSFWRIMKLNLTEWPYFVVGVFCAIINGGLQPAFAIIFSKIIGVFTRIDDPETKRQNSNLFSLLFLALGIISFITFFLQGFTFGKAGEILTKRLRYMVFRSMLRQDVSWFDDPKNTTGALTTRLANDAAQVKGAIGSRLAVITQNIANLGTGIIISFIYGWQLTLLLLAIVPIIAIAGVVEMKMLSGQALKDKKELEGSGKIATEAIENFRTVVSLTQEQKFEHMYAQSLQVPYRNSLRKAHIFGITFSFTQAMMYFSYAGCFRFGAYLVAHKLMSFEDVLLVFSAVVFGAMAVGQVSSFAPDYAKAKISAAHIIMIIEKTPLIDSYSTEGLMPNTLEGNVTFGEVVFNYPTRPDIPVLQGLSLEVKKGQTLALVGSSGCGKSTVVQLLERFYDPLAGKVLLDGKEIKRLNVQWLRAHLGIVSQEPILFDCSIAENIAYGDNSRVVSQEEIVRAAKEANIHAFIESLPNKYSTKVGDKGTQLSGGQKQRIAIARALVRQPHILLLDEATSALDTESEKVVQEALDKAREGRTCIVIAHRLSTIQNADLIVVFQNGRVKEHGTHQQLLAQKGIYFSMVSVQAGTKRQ
Method: as §1, §2

HL-60 parental = assay: Alamar Blue cell viability assay; assay type: cell-based; settings: Homo sapiens, 72 h
Method: as §2, §5, §4

[1] = tested on: normal mouse mammary epithelial cells; assay: Viability of normal mammary epithelial cells; assay type: cell-based; settings: for Percent viability of normal mammary epithelial cells compared to control: 10 nM, 72 hr treatment; for effects on normal mammary epithelial cells: up to 10 μM
Method: The maximum toxicity elicited by these drugs on normal cells at a concentration of 10 nM was only 8% (see Table 4).

[2] = tested on: human chronic myeloid leukaemia K562 cells; assay: MTT cell viability assay; assay type: cell-based; settings: read-out: Inhibition of cell viability (IC50 value, nM) K562
[3] = tested on: normal mouse mammary epithelial cells; assay: Viability of normal mammary epithelial cells; assay type: cell-based; settings: 72 hr treatment
[4] = tested on: human promyelocytic leukaemia HL-60 cells; assay: MTT cell viability assay; assay type: cell-based; settings: read-out: Inhibition of cell viability (IC50 value, nM) HL-60
HL-60-MDR(PGP) = assay: Alamar Blue cell viability assay; assay type: cell-based, human; settings: for IC50: Homo sapiens, HL60/MDR, 72 h; for RF: IC50 HL-60-MDR(PGP) / IC50 HL-60 parental
Method: as §1, §2, §3, §4

[5] = tested on: primary CML cells (BCR-ABL-positive); assay: Apoptosis in ex vivo CML cells, annexin V staining; assay type: cell-based, human; settings: 72 h
Text: This study is the first pre-clinical evaluation of combretastatins in the treatment of chemotherapy naive and patients with acquired imatinib mesylate resistance (refractory or relapsed disease despite adequate dose and duration). Imatinib mesylate is the first line treatment in BCR-ABL-positive CML chemotherapy. BCR-ABL, a constitutively active protein tyrosine kinase is a product of the Philadelphia chromosome (Ph) translocation t(9;22) and plays a central role in the pathogenesis of CML. […] All cells were treated with a clinically achievable concentration of imatinib mesylate (indicated as STI in FIG. 3) [250 nM]. […] The percentage apoptosis was determined by flow cytometric analysis of annexin-V stained cells.
The percentage of apoptosis in ex-vivo CML cells was determined by annexin V staining. […] Cells were collected by centrifugation at 400×g for 5 min and resuspended in anti-CD-45 diluted 1:50 in RPMI medium. Following a 10 min incubation in the dark at room temperature, cells were centrifuged and washed in Annexin binding buffer (Biosource, Nivelles, Belgium). Cells were again centrifuged and resuspended in Annexin-V-FITC (IQ products, Netherlands) diluted in Annexin binding buffer (1:50). Samples were next incubated in the dark on ice for 15 min. Annexin binding buffer (1 ml) was added to each sample. Samples were collected by centrifugation and resuspended in 0.5 ml of Annexin binding buffer. Cells were read immediately by flow cytometry and analysed by Cellquest software. CML cells were selected and gated based on their low to medium side scatter and low CD45 expression.

HL-60-BCRP = assay: Alamar Blue cell viability assay
Method: as §1, §2, §3, §4

[6] = In vitro stability in plasma; assay type: in vitro ADME; settings: human plasma
[7] = tested on: MCF-7 breast cancer cell line; assay: Antiproliferation study, MTT cell viability assay; assay type: cell-based; settings: Homo sapiens
Method: All assays were performed in triplicate for the determination of mean values reported. Compounds were assayed as the free bases isolated from reaction. The human breast tumour cell line MCF-7 was cultured in Eagles minimum essential medium in a […] atmosphere with 10% fetal bovine serum, 2 mM L-glutamine and 100 μg/mL penicillin/streptomycin. The medium was supplemented with 1% non-essential amino acids. MDA-MB-231 cells were maintained in Dulbecco's Modified Eagle's medium (DMEM), supplemented with 10% (v/v) Fetal bovine serum, 2 mM L-glutamine and 100 μg/mL penicillin/streptomycin (complete medium). Cells were trypsinised and seeded at a density of 2.5×10^4 cells/ml in a 96-well plate and incubated at 37° C., […] atmosphere for 24 h. […] Control wells contained the equivalent volume of the vehicle ethanol (1% v/v). The culture medium was then removed and the cells washed with 100 μL phosphate buffered saline (PBS) and 50 μL MTT added, to reach a final concentration of 1 mg/mL MTT added. Cells were incubated for 2 h in darkness at 37° C. At this point solubilization was begun through the addition of 200 μL DMSO and the cells maintained at room temperature in darkness for 20 min to ensure thorough colour diffusion before reading the absorbance. The absorbance value of control cells (no added compound) was set to 100% cell viability and from this graphs of absorbance versus cell density per well were prepared to assess cell viability and from these, graphs of percentage cell viability versus concentration of subject compound added were drawn.

[8] = Stability by HPLC at three pH values; assay type: physicochemical
Method: The stability of β-lactam compounds 4, 8 and 12 was assessed by HPLC at three different pH values. […] The half-lives of 8 and 12 were both greater than 24 hours at all pH values. The stability of three ester prodrug derivatives of 4, i.e. 29, 30 and 31, was also assessed (FIG. 6).

[9] = MCF7, 72 h, antiproliferative activity, MTT, 72 h, read-out: IC50 (μM) MCF-7 cell line
[10] = HL-60-MDR(PGP), Alamar blue, read-out: IC50

SMILES: COc1cccc2c1C(=O)c1c(O)c3c(c(O)c1C2=O)C[C@@](O)(C(=O)CO)C[C@@H]3O[C@H]1C[C@H](N)[C@H](O)[C@H](C)O1 [Adriamycin, adriamycin]
- IC50 (A2780-ADR (PGP)): 5100 nM
- RF (A2780-ADR (PGP)): 119.2
- IC50 (A2780-parental): 42.8 nM

SMILES: COc1ccc(/C=C\c2cc(OC)c(OC)c(OC)c2)cc1O [CA-4, combretastatin A-4, reference compound]
- IC50 (A2780-ADR (PGP)): 6.8 nM
- RF (A2780-ADR (PGP)): 0.9
- substrate for the p-glycoprotein (p-glycoprotein): poor substrates for the p-glycoprotein
- IC50 (HL-60 parental): 4.5 nM
- Percent viability of normal mammary epithelial cells compared to control [1]: 92%
- effects on normal mammary epithelial cells [1]: minimal effects
- IC50 [2]: 3.8 nM
- Percent viability of normal mammary epithelial cells compared to control ([3]; 1 nM): 98%
- Percent viability of normal mammary epithelial cells compared to control ([3]; 100 nM): 74.8%
- Percent viability of normal mammary epithelial cells compared to control ([3]; 1 μM): 74.7%
- Percent viability of normal mammary epithelial cells compared to control ([3]; 10 μM): 75.0%
- IC50 [4]: 4.1 nM
- IC50 (A2780-parental): 7.5 nM
- IC50 (HL-60-MDR(PGP)): 3.3 nM
- RF (HL-60-MDR(PGP)): 0.73
- apoptosis induction compared with imatinib mesylate ([5]; 250 nM each, patient samples): more effective inducers of apoptosis than imatinib mesylate
- apoptosis in primary CML cells ([5]; 250 nM, chemotherapy naïve (4 samples) and imatinib mesylate resistant (2 samples)): induced apoptosis
- IC50 (HL-60-BCRP; Homo sapiens, 72 h): 3.5 nM
- RF (HL-60-BCRP; IC50 HL-60-BCRP / IC50 HL-60 parental): 0.8

SMILES: COc1ccc(C2C(Oc3ccccc3)C(=O)N2c2cc(OC)c(OC)c(OC)c2)cc1O (stereo not shown) [Compound 1, 4-(3-Hydroxy-4-methoxy-phenyl)-3-phenoxy-1-(3,4,5-trimethoxy-phenyl)-azetidin-2-one]
- half-life [6]: 35 h
- IC50 [7, 9]: 0.038 µM

SMILES: C=CC1C(=O)N(c2cc(OC)c(OC)c(OC)c2)C1c1ccc(OC)c(O)c1 (stereo not shown) [Compound 2, 4-(3-Hydroxy-4-methoxy-phenyl)-1-(3,4,5-trimethoxy-phenyl)-3-vinyl-azetidin-2-one]
- Percent viability of normal mammary epithelial cells compared to control [1]: 92.3%
- effects on normal mammary epithelial cells [1]: minimal effects
- IC50 [2]: 26.6 nM
- Percent viability of normal mammary epithelial cells compared to control ([3]; 1 nM): 93.1%
- Percent viability of normal mammary epithelial cells compared to control ([3]; 100 nM): 74.4%
- Percent viability of normal mammary epithelial cells compared to control ([3]; 1 μM): 73.0%
- Percent viability of normal mammary epithelial cells compared to control ([3]; 10 μM): 73.8%
- IC50 [4]: 17.1 nM
- IC50 [7, 9]: 0.0014 µM
- IC50 ([7]; MCF7, MTT cell viability assay, read-out: Inhibition of cell viability (IC50 value, nM) MCF-7): 0.0008 to 0.0031 µM

SMILES: COc1ccc(C2C(c3ccc(O)cc3)C(=O)N2c2cc(OC)c(OC)c(OC)c2)cc1 (stereo not shown) [Compound 10, 3-(4-Hydroxy-phenyl)-4-(4-methoxy-phenyl)-1-(3,4,5-trimethoxy-phenyl)-azetidin-2-one]
- melting point: 155 °C
- IC50 [7, 9]: 0.059 µM

SMILES: COc1ccc(C2C(c3ccc(F)cc3)C(=O)N2c2cc(OC)c(OC)c(OC)c2)cc1 (stereo not shown) [Compound 11, 3-(4-Fluoro-phenyl)-4-(4-methoxy-phenyl)-1-(3,4,5-trimethoxy-phenyl)-azetidin-2-one]
- melting point: 120 °C
- IC50 [7, 9]: 0.042 µM

SMILES: COc1ccc(C2C(c3ccc(O)cc3)C(=O)N2c2cc(OC)c(OC)c(OC)c2)cc1N (stereo not shown) [Compound 15, 4-(3-Amino-4-methoxy-phenyl)-3-(4-hydroxy-phenyl)-1-(3,4,5-trimethoxy-phenyl)-azetidin-2-one]
- melting point: 177 °C
- IC50 [7, 9]: 0.039 µM

SMILES: COc1ccc(C2C(c3cccs3)C(=O)N2c2cc(OC)c(OC)c(OC)c2)cc1O (stereo not shown) [Compound 18, 4-(3-Hydroxy-4-methoxy-phenyl)-3-thiophen-2-yl-1-(3,4,5-trimethoxy-phenyl)-azetidin-2-one]
- melting point: 113 to 114 °C
- IC50 [7, 9]: 0.007 µM

SMILES: COc1ccc(C2C(c3ccsc3)C(=O)N2c2cc(OC)c(OC)c(OC)c2)cc1O (stereo not shown) [Compound 20, 4-(3-Hydroxy-4-methoxy-phenyl)-3-thiophen-3-yl-1-(3,4,5-trimethoxy-phenyl)-azetidin-2-one]
- melting point: 151 to 152 °C
- IC50 [7, 9]: 0.01 µM

SMILES: COc1ccc(C2C(c3ccsc3)C(=O)N2c2cc(OC)c(OC)c(OC)c2)cc1 (stereo not shown) [Compound 21, 4-(4-Methoxy-phenyl)-3-thiophen-3-yl-1-(3,4,5-trimethoxy-phenyl)-azetidin-2-one]
- melting point: 130 °C
- IC50 [7, 9]: 0.06 µM

SMILES: COc1ccc(C2[C@H](c3ccccc3)C(=O)N2c2cc(OC)c(OC)c(OC)c2)cc1OC(=O)c1ccccc1 (stereo partly shown) [Compound 31]
- compound remaining after 24 hours ([8]; pH 4): 61%
- compound remaining after 24 hours ([8]; pH 7.4): 35%
- compound remaining after 24 hours ([8]; pH 9): 76%

SMILES: CC(=O)O[C@H]1C(=O)[C@@]2(C)[C@H]([C@H](OC(=O)c3ccccc3)[C@]3(O)C[C@H](OC(=O)[C@H](O)[C@@H](NC(=O)c4ccccc4)c4ccccc4)C(C)=C1C3(C)C)[C@]1(OC(C)=O)CO[C@@H]1C[C@@H]2O [Paclitaxel, paclitaxel]
- IC50 (A2780-ADR (PGP)): > 10000 nM
- RF (A2780-ADR (PGP)): >2,381
- IC50 (HL-60 parental): 4.8 nM
- IC50 (A2780-parental): 4.2 nM
- IC50 (HL-60-MDR(PGP); [10]): > 10000 nM
- RF (HL-60-MDR(PGP)): >2,083

SMILES: CC[C@]1(O)C[C@H]2CN(CCc3c([nH]c4ccccc34)[C@@](C(=O)OC)(c3cc4c(cc3OC)N(C=O)[C@H]3[C@@](O)(C(=O)OC)[C@H](OC(C)=O)[C@]5(CC)C=CCN6CC[C@]43[C@@H]65)C2)C1 [Vincristine, vincristine]
- IC50 (A2780-ADR (PGP)): 1600 nM
- RF (A2780-ADR (PGP)): 516
- IC50 (HL-60 parental): 2.2 nM
- IC50 (A2780-parental): 3.1 nM
- IC50 (HL-60-MDR(PGP); [10]): 610 nM
- RF (HL-60-MDR(PGP)): 277.3
